The values that follow are results of earlier work, collected in patent US4795645A, “Sustained release tablets of theophylline” (Yissum Research and Development, priority 1986, dated 1989).

The conditions of the series: from oral solutions and plain uncoated tablets.

As for `Cn1c(=O)c2[nH]cnc2n(C)c1=O` [Theophylline, theophylline], the absorption result is “rapidly, consistently and completely absorbed”.
